In BindingDB's records for patent US20250074910 (Hitgen, 2025) one finds IC50 data, which are given here for 2 compounds.

Broadly, the IC50 is the concentration at which inhibition is half-maximal. A lower IC50 goes with greater potency.

The target of the test is T1, Menin (Homo sapiens, UniProt O00255).
T1 sequence (O00255 whole entry): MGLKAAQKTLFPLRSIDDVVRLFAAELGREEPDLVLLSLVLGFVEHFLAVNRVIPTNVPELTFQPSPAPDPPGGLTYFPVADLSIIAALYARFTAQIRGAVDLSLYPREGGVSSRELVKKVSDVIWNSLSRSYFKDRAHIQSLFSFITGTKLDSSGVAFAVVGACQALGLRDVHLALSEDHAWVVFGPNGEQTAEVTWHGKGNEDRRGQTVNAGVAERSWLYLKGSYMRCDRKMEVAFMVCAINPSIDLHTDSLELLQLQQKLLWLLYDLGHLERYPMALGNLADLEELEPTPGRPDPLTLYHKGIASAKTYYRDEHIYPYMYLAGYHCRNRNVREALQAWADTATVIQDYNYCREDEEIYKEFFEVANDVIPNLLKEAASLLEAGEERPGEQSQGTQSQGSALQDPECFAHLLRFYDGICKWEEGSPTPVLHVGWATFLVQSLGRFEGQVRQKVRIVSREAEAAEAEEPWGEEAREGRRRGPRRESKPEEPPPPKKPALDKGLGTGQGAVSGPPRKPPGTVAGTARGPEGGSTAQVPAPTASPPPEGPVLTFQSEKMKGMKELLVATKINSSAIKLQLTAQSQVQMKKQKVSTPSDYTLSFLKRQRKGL
The experiment in a line: Menin-MLL Interaction Inhibitory Activity Assay. On the procedure: The inhibition of Menin/MLL-4-43 peptide interaction by small molecule inhibitors was quantitatively detected by fluorescence polarization competition assay. The experiment was performed in a 384-well plate (Corning, Cat #3575) using a reaction buffer consisting of 50 mM Tris, pH 7.5, 50 mM NaCl, and 1 mM DTT. A 40 μL reaction system included 10 μL of 8 nM Menin recombinant protein and 10 μL of the test compound at different concentrations. The compound was pre-incubated with Menin protein for 15 min, and then 20 μL of 10 nM FITC-MLL4-43-peptide was added. After incubation on a shaker at 25° C. for 60 min, the fluorescence polarization signal (FP 485 520 520) was read using BMG PHERAStar detection. The experimental data was analyzed and processed by GraphPad Prism 6 software to obtain the IC50 value.

The structures appear in SMILES notation.

In turn, `CCN(C(=O)c1cc(F)ccc1Oc1cncnc1N1CC2(CCN(C[C@H]3CC[C@@]4(CCC(=O)N4)CC3)CC2)C1)C(C)C` [US20250074910, Example 1] yielded an IC50 of 36.3 nM.

`CC(C)N(C(=O)c1cc(F)ccc1Oc1nncnc1N1CC2(CCN(C[C@H]3CC[C@]4(CC3)CC(CO)(CO)C(=O)N4)CC2)C1)C(C)C` [US20250074910, Example 63] gave an IC50 of 8.3 nM.
